# Measurements taken from article PMC8496750, “Identification of the organic anion transporting polypeptides responsible for the hepatic uptake of the major metabolite of epyrifenacil, S‐3100‐CA, in mice” (Pharmacology Research & Perspectives, 2021).
# Where two headings read alike, the source gives them in different places.
# Tests used:
# [1] = Metabolite analysis in plasma, liver, and kidney (TLC); type: in vivo, Crl:CD1(ICR) mice; details: for concentration at 2 h / Kp at 2 h: Crl:CD1(ICR), mouse, oral; for Kp at 2 h: liver and plasma, read-out: Liver/plasma ratio of S‐3100‐CA; for Kp at 2 h / S‐3100‐CA concentration in liver: 2 h
# Excerpt: Precoated silica gel 60 F254 chromatoplate (20 × 20 cm, 0.25‐ or 0.5‐mm layer thickness, Merck KGaA) was used for two‐dimensional thin layer chromatography (2D‐TLC) analysis. The solvent systems were ethyl formate/formic acid (95/5, v/v) for the first dimension, and ethyl acetate/acetic acid (95/5, v/v) for the second dimension. The radioactivity on the TLC plates was detected by autoradiography using an imaging plate processed with a fluoro‐image analyzer (FLA‐9500, GE Healthcare). The identity of the metabolites was confirmed by co‐chromatography in comparison with authentic metabolite standards.
# Three mice per sex at 8 weeks old were given a single oral dose of [^14C]epyrifenacil at 1 mg/kg with or without co‐administration of OATP inhibitors. […] At 2 h after administration of [^14C]epyifenacil, the animals were euthanized by whole blood collection from the abdominal aorta under anesthesia with isoflurane. The sampling time point was selected as the time around T max based on the result of the blood ^14C‐concentration study. Then, the liver and kidney were dissected out, and the amount of ^14C was measured. Aliquots of heparinized blood samples were separated into blood cells and plasma by centrifugation at 2000g for 10 min at 4°C. The total weight of the liver and kidney was determined for each animal. Two aliquots of plasma and tissue samples (approximately 0.05–0.1 g) were weighed in a glass vial, and the radioactivity was measured.
# Approximately 0.3 g of liver, kidney, and plasma samples were pooled, respectively, for each dose and gender to obtain samples for analysis. Pooled liver, kidney, and plasma (ca. 1 g each) samples were homogenized with an approximately 3‐fold volume (v/w) of methanol using the mixer mill MM400 (5 min, 25 cycles/second, Retsch GmbH) and centrifuged (10 000g, 5 min, 4°C) to separate the supernatants from the residues. The extraction was repeated one additional time. The supernatants obtained were pooled and labeled liver, kidney, and plasma extracts. These samples were concentrated and then subjected to TLC analysis. For calculation of extraction efficacy, the post‐extraction solids (PESs) from the tissues and plasma extracts were sampled in low potassium glass vials. PESs were solubilized with 3 M potassium hydroxide solution (approximately 1 ml), then bleached with 30% hydrogen peroxide solution, and finally mixed with 10 ml of Hionic‐Fluor to measure the radioactivity.
# mouse Oatp1a1 = biological target: T1, mouse Oatp1a1 (Mus musculus, UniProt Q9QXZ6); details: inhibitor at 100 μM
# T1 sequence (Q9QXZ6 1-670): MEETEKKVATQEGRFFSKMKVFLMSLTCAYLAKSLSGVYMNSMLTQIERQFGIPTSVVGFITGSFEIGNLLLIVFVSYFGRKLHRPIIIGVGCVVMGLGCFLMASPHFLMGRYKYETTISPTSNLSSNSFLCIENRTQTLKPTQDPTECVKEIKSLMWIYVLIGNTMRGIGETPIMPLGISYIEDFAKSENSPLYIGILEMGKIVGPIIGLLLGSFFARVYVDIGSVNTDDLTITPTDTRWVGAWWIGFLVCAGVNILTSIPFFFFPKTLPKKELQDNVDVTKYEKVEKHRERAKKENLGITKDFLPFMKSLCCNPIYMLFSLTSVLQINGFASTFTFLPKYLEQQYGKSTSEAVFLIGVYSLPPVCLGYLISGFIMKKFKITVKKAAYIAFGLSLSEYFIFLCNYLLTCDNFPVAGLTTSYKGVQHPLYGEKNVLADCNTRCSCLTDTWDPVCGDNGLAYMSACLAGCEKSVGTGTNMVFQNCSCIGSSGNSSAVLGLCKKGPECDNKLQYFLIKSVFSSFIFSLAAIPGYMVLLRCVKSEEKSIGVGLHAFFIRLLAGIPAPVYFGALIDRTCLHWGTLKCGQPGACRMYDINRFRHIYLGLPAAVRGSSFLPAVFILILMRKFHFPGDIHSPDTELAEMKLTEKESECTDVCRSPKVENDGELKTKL
# Protocol: (§1) 293FT cells were purchased from Thermo Fisher Scientific, Inc.. The cells were grown in Dulbecco's modified Eagle medium (supplemented with 4.5 g/L glucose and 2 mM L‐glutamine) at 37°C, 5% CO2, and 95% humidity. The cells were passaged 3 times per week by harvesting cells using trypsin and plating at a density of 1.0 × 10^4 cells/cm^2 in a 10 cm cell culture plate for maintenance culture. The 293FT cells were detached using trypsin and re‐seeded at a density of 2.5 × 10^4 cells/cm^2 in BioCoat™ Collagen I 6‐well plates (Corning Inc.) for transfection and then treated with 1.2 μg of plasmid vector and 3.2 μl of Lipofectamine™ 2000 Transfection Reagent (Thermo Fisher Scientific, Inc.) according to the manufacturer's instructions. After a 3‐h treatment, the transfection medium was replaced with a fresh cell culture medium and incubated at 37°C with 95% humidity and 5% CO2 until ready for the assay.
# (§2) Transport experiments were conducted approximately 24 h post‐transfection. The experiments were initiated by aspirating culture medium and addition of pre‐warmed radiolabeled substrate solution (final 1.0% of acetonitrile or 0.9% of ethanol in phosphate‐buffered saline (PBS[−])) to each well. After a 10‐min incubation, cells were washed twice with 1 ml of ice‐cold PBS(−) and lysed with 700 μl of 1.0 M NaOH for 3 h or more at room temperature. The lysate was transferred to a 1.5‐ml tube, and neutralized with 350 μl of 2.0 M HCl and 350 μl of 2.0% sodium dodecyl sulfate (SDS) solution. From the lysate, 1.0 ml was transferred to a vial containing 10 ml of Emulsifier Scintillator Plus to measure the radioactivity in the LSC. The protein concentration of the cell lysate was also measured using a Pierce™ BCA Protein Assay Kit (Thermo Fisher Scientific, Inc.), which was used to normalize, according to the cell number, the radioactivity in the cell lysate extract. The protein assay was performed in duplicate. Each sample type was assayed in triplicate wells, and each run was performed twice. […] Each sample type was assayed in triplicate wells.
# mouse Oatp1a4 = biological target: T2, mouse Oatp1a4 (Mus musculus, UniProt Q9EP96); details: inhibitor at 100 μM
# T2 sequence (Q9EP96 1-670): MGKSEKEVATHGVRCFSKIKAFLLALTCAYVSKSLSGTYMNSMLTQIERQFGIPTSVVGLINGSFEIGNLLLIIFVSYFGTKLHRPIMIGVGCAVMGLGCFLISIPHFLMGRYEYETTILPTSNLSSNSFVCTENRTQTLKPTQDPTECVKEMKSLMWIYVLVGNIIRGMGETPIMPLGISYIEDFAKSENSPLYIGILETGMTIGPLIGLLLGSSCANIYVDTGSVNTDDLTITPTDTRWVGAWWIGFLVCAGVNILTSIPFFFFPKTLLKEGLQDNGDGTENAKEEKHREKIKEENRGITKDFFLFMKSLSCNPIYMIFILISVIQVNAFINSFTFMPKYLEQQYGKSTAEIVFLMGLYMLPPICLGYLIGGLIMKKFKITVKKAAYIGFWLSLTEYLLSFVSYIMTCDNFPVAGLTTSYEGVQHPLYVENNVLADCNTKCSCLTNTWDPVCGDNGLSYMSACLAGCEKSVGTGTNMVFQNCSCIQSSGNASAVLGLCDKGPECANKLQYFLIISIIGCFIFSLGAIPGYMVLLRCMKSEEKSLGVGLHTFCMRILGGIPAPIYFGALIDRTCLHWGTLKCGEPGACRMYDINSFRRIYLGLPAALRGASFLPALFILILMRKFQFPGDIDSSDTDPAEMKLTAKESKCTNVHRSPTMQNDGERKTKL
# Protocol: as §1, §2
smiles,measurement,setting,value
Cn1c(C(F)(F)F)cc(=O)n(-c2cc(Oc3cccnc3OCC(=O)O)c(Cl)cc2F)c1=O [S‐3100‐CA],concentration at 2 h,"[1]; kidney, with rifampicin (OATP inhibitor) 200 mg/kg p.o., Female, 2 h after [^14C]Epyrifenacil 1 mg/kg p.o. + Rifampicin 200 mg/kg p.o., read-out: Metabolite concentration, Kidney",50 ng/g
same,concentration at 2 h,"[1]; kidney, with rifampicin (OATP inhibitor) 200 mg/kg p.o., Male, 2 h after [^14C]Epyrifenacil 1 mg/kg p.o. + Rifampicin 200 mg/kg p.o., read-out: Metabolite concentration, Kidney",73 ng/g
same,concentration at 2 h,"[1]; kidney, Female, 2 h after [^14C]Epyrifenacil 1 mg/kg p.o., read-out: Metabolite concentration, Kidney",96 ng/g
same,concentration at 2 h,"[1]; kidney, Male, 2 h after [^14C]Epyrifenacil 1 mg/kg p.o., read-out: Metabolite concentration, Kidney",55 ng/g
same,concentration at 2 h,"[1]; liver, with rifampicin (OATP inhibitor) 200 mg/kg p.o., Female, 2 h after [^14C]Epyrifenacil 1 mg/kg p.o. + Rifampicin 200 mg/kg p.o., read-out: Metabolite concentration, Liver",660 ng/g
same,concentration at 2 h,"[1]; liver, with rifampicin (OATP inhibitor) 200 mg/kg p.o., Male, 2 h after [^14C]Epyrifenacil 1 mg/kg p.o. + Rifampicin 200 mg/kg p.o., read-out: Metabolite concentration, Liver",1370 ng/g
same,concentration at 2 h,"[1]; liver, Female, 2 h after [^14C]Epyrifenacil 1 mg/kg p.o., read-out: Metabolite concentration, Liver",3520 ng/g
same,concentration at 2 h,"[1]; liver, Male, 2 h after [^14C]Epyrifenacil 1 mg/kg p.o., read-out: Metabolite concentration, Liver",4740 ng/g
same,concentration at 2 h,"[1]; plasma, with rifampicin (OATP inhibitor) 200 mg/kg p.o., Female, 2 h after [^14C]Epyrifenacil 1 mg/kg p.o. + Rifampicin 200 mg/kg p.o., read-out: Metabolite concentration, Plasma",143 ng/g
same,concentration at 2 h,"[1]; plasma, with rifampicin (OATP inhibitor) 200 mg/kg p.o., Male, 2 h after [^14C]Epyrifenacil 1 mg/kg p.o. + Rifampicin 200 mg/kg p.o., read-out: Metabolite concentration, Plasma",76 ng/g
same,concentration at 2 h,"[1]; plasma, Female, 2 h after [^14C]Epyrifenacil 1 mg/kg p.o., read-out: Metabolite concentration, Plasma",68 ng/g
same,concentration at 2 h,"[1]; plasma, Male, 2 h after [^14C]Epyrifenacil 1 mg/kg p.o., pooled samples, read-out: Metabolite concentration, Plasma",54 ng/g
same,Share of ^14C in liver,[1]; all dose groups,over 70%
same,Kp at 2 h,"[1]; female, 1 mg/kg, females, epyrifenacil 1 mg/kg p.o. without inhibitors",52
same,Kp at 2 h,"[1]; female, females, DGX co‐administrated (oral or intraperitoneal)",50 to 56
same,Kp at 2 h,"[1]; female, females, RIF co‐administrated",5
same,S‐3100‐CA concentration in liver,"[1]; females, RIF co‐administrated",0.660 ppm
same,Kp at 2 h,"[1]; male, 1 mg/kg, males, epyrifenacil 1 mg/kg p.o. without inhibitors",88
same,Kp at 2 h,"[1]; male, males, DGX co‐administrated (oral or intraperitoneal)",89 to 139
same,Kp at 2 h,"[1]; male, males, RIF co‐administrated",18
same,S‐3100‐CA concentration in liver,"[1]; males, RIF co‐administrated",1.371 ppm
"CO[C@H]1/C=C/O[C@@]2(C)Oc3c(C)c(O)c4c(O)c(c(/C=N/N5CCN(C)CC5)c(O)c4c3C2=O)NC(=O)/C(C)=C\C=C\[C@H](C)[C@H](O)[C@@H](C)[C@@H](O)[C@@H](C)[C@H](OC(C)=O)[C@@H]1C [RIF, Rifampicin]","Uptake of S‐3100‐CA, % of that by vehicle‐treated cells",mouse Oatp1a1,less than 40%
same,"Uptake of S‐3100‐CA, % of that by vehicle‐treated cells",mouse Oatp1a4,less than 40%
